These results are taken from publication PMC10781839 (European Journal of Drug Metabolism and Pharmacokinetics, 2023).

For series [1] the following is noted: cited from earlier work.
The next series deals with CYP3A. The following applies: for Midazolam/1-OH-midazolam AUC2–4 h ratio: pantoprazole group.
The test system of series [2] is CYP2D6. The following applies: cited from earlier work.
In another series the test system is CYP3A4. The following applies: cited from earlier work; for CYP3A4 inhibition in vitro: HCQ metabolites.
Series [3] deals with CYP2D6. The following applies: cited from earlier work. This is another data set of the same source.
Series [4] concerns CYP2D6. The following applies: single 400 mg HCQ, short term, yohimbine probe.
For series [5] the following is noted: cited from earlier work. This is another data set of the same source.
The target of another series is recombinant human CYP3A4 (Homo sapiens, UniProt P08684). Briefly: P450-Glo CYP3A4 Assay, inhibition by pantoprazole. It counts as in vitro ADME. The following applies: pantoprazole 100 µM, in vitro.
Chain of recombinant human CYP3A4 (P08684 whole entry): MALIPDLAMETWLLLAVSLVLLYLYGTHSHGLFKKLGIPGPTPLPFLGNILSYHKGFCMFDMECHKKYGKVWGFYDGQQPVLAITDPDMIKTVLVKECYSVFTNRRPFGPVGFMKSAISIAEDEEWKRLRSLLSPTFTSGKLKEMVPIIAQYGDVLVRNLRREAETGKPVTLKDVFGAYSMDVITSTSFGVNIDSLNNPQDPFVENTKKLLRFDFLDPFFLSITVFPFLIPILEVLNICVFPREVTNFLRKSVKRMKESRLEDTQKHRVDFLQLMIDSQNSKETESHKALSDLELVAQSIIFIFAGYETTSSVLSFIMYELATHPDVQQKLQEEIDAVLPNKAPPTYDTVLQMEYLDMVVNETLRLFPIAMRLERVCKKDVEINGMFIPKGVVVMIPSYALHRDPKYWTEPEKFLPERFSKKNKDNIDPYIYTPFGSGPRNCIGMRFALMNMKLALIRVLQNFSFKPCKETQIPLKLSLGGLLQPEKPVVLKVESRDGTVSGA
For series [6] the following is noted: cited from earlier work; for Peak serum concentration: pantoprazole 40 mg.
[7] abbreviates: all participants, after HCQ intake (± pantoprazole).
Where [8] appears, read: pantoprazole subgroup, HCQ plus pantoprazole.
[9] abbreviates: after 8-day course of 400 mg HCQ twice daily, seven healthy volunteers.

Entries after “also recorded” stand apart in the source; their conditions may differ. Where two headings read alike, the source gives them in different places.

With `Cc1ncc2n1-c1ccc(Cl)cc1C(c1ccccc1F)=NC2` [midazolam], the “Delay of peak plasma concentration vs fasting state” value in series [1] (oral standard dose 1 h after a meal) is listed as 0.9 h. For the same compound, in series [1] (therapeutic or microdoses), the Oral bioavailability result is on record as “approximately 25%”. The “Increase of midazolam AUC2–4 h vs baseline” value in the series on CYP3A (setting [7]) is 25%; in the series with CYP3A (setting [8]), 46%. In addition, the “Change of midazolam AUC2–4 h vs baseline” value with CYP3A (control subgroup, HCQ alone) was “no change”. Moreover, the “Midazolam/1-OH-midazolam AUC2–4 h ratio” value is 3.60 ± 1.56 with CYP3A (after hydroxychloroquine plus pantoprazole) and 3.03 ± 1.59 in the series on CYP3A (baseline).
Regarding `COCCc1ccc(OCC(O)CNC(C)C)cc1` (stereo not shown) [metoprolol], in the series on CYP2D6 [2] (setting [9]), the “Increase of metoprolol AUC” value is 65% and the “Increase of metoprolol Cmax” value is reported as 72%.
For `CCN(CCO)CCCC(C)Nc1ccnc2cc(Cl)ccc12` (stereo not shown) [HCQ, hydroxychloroquine], the “CYP3A4 inhibition in vitro by parent drug” value in the series on CYP3A4 is recorded as “did not support the hypothesis that the parent drug HCQ inhibits CYP3A4 activity”. Also, in the series with CYP3A (single 400 mg HCQ, short term, midazolam probe), the “Inhibition of CYP3A metabolism in vivo” value is listed as “did not inhibit”. In the series on CYP2D6 [3], the “CYP2D6 inhibition in vitro” value is “competitively and reversibly inhibit CYP2D6 activity, albeit only mildly”. Also, in the series on CYP2D6 [4], the “Inhibition of CYP2D6 metabolism in vivo” value was “not a clinically relevant CYP2D6 inhibitor; also recorded: did not inhibit”. Further, the “Time until steady state is reached” value in series [5] is reported as 4 months. The “CYP2D6 inhibition in healthy volunteers” value in the series with CYP2D6 [2] (interaction with metoprolol and dextromethorphan) is “weakly inhibits CYP2D6”.
In the case of `COc1ccc2c(c1)[C@]13CCCC[C@@H]1[C@H](C2)N(C)CC3` [dextromethorphan], in the series with CYP2D6 [2] (after 8-day course of 400 mg HCQ twice daily), the “Change of urinary metabolic ratio of dextromethorphan” value is listed as “did not show any significant change”.
In the case of `CC(CCCNCCO)Nc1ccnc2cc(Cl)ccc12` (stereo not shown) [desethylhydroxychloroquine], in the series on CYP3A4, the “CYP3A4 inhibition in vitro” value is recorded as “time-dependent inhibitors of CYP3A4”.
`OCc1ncc2n1-c1ccc(Cl)cc1C(c1ccccc1F)=NC2` [1-OH-midazolam, 1-hydroxy-midazolam]: the “Increase of 1-OH-midazolam AUC2–4 h vs baseline” value in the series with CYP3A (setting [7]) came to 17%; with CYP3A (setting [8]) it was 17.5%.
Turning to `CCNCCCC(C)Nc1ccnc2cc(Cl)ccc12` (stereo not shown) [desethylchloroquine], the “CYP3A4 inhibition in vitro” value in the series with CYP3A4 is listed as “time-dependent inhibitors of CYP3A4”. Moreover, in the series with CYP2D6 [3], the “CYP2D6 inhibition in vitro” value was “competitively and reversibly inhibit CYP2D6 activity, albeit only mildly”.
Turning to `CC(CCCN)Nc1ccnc2cc(Cl)ccc12` (stereo not shown) [didesethylchloroquine], in the series with CYP3A4, the “CYP3A4 inhibition in vitro” value is on record as “time-dependent inhibitors of CYP3A4”.
With `COc1ccnc(C[S+]([O-])c2nc3ccc(OC(F)F)cc3[nH]2)c1OC` (stereo not shown) [pantoprazole], the “Inhibition of CYP3A4-mediated midazolam metabolism in vitro” value in the series on CYP3A4 was “inhibits CYP3A4-mediated midazolam metabolism at relatively high concentrations”. For the same compound, the “Local concentration in the gut” value in the series on CYP3A (40 mg pantoprazole with approximately 200 ml of fluid, estimate) is “exceeded 500 µM”. The “Reduction of CYP3A activity” value on recombinant human CYP3A4 was determined as 75%. Besides, in [6], the “Time to peak concentrations after oral administration” value was 2 to 3 h and the Peak serum concentration was 2.5 µg/mL. Also, in [6] (converted from µg/ml), the Peak serum concentration was 6.5 µM.
